Experiments:
[1] = biological target: T1, Leukotriene A-4 hydrolase (Homo sapiens, UniProt P09960); test: Activation of N-terminal (His)6 and Xpress-tagged LTA4H (unknown origin) expressed in Escherichia coli BL21(DE3) cells assessed as increase in aminopeptidase activity by measuring p-nitroanilide release using L-Alanine-p-nitroanilide incubated for 10 mins by UV plate reader based assay
T1 sequence (P09960 whole entry): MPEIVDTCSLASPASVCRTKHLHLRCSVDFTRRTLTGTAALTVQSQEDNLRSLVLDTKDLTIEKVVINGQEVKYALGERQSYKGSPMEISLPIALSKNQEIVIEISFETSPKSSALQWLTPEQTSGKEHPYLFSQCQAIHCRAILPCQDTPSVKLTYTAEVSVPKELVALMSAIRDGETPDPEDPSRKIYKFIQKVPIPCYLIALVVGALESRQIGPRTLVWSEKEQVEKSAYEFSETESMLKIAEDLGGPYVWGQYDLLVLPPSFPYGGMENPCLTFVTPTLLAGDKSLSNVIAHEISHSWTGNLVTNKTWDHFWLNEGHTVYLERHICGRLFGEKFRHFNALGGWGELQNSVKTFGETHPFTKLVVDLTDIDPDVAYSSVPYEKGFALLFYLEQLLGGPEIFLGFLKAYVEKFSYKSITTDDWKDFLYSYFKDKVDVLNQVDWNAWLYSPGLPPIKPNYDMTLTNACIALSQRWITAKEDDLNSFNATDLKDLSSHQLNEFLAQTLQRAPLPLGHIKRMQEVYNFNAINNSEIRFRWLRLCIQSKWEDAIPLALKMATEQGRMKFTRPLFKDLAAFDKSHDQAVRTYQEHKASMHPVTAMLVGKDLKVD

[2] = biological target: T2, Leukotriene A-4 hydrolase (Homo sapiens) (UniProt P09960); test: (§1) Activation of N-terminal (His)6 and Xpress-tagged LTA4H (unknown origin) expressed in Escherichia coli BL21(DE3) cells assessed as increase in aminopeptidase activity by measuring reciprocal allosteric coupling constant for hyperbolic mixed predominantly catalytic activation using L-Alanine-p-nitroanilide incubated for 10 mins by p-nitroanilide release detection based UV plate reader based assay
T2 sequence (whole entry): T1 sequence (P09960 whole entry)

[3] = biological target: T2, Leukotriene A-4 hydrolase (Homo sapiens); test: as §1, with “factor by which activator affects catalytic” for “reciprocal allosteric coupling”
[4] = biological target: T2, Leukotriene A-4 hydrolase (Homo sapiens); test: as §1, with “dissociation” for “reciprocal allosteric coupling”, “constant (KX)” for “constant”

Row | AC50 [1] [µM] | K [2] | fold change (FC) [3] | K [4] [µM] | Compound
1 | 4.83 | 2.66 | 23.6 | 0.18 | COc1ccc(Cc2ccccc2)cc1
2 | 1.39 | 9.51 | 21.4 | 9.6 | Nc1nc(-c2ccc(Cc3ccc(C(F)(F)F)cc3)cc2)cs1
3 | 69 | – | – | – | Nc1nc(-c2ccc(Cc3cccc(C(F)(F)F)c3)cc2)cs1

Source: ChEMBL document CHEMBL4414660, “Effect of Modifier Structure on the Activation of Leukotriene A4 Hydrolase Aminopeptidase Activity” (J Med Chem, 2019)
